Test systems include 786-0; CAKI-1; EKVX; HCC 2998; HCT-116; HOP-62; HT-29; Hs-578T; IGROV-1; LOX IMVI; M14; MCF7; MDA-N; NCI-H226; NCI-H522; OVCAR-4; OVCAR-5; OVCAR-8; RPMI-8226; SK-OV-3.
Experiment in all cases: NCI tumour cell line growth inhibition, 48 h

The structures appear in SMILES notation. Counter-ions that a name gives are not always drawn.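 1) Cells in 96-well plates. 2) Compound, 48 h, 5 concentrations. 3) Linear interpolation between surrounding doses. 4) Unreached endpoint = highest concentration. The concentration for 50% growth inhibition is given as GI50.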 The source made the active and inactive calls. Rule as the data show it: active = GI50 up to about 1.1 µM and inactive = higher.

With `C[C@@]12C=CC3C/C(=N\C(N)=S)C=C(CCCC4OCCO4)[C@]3(CC1)C2` (stereo not given in full), the GI50 in the assay with 786-0 is 19.3 µM (inactive); with CAKI-1 it was 25.1 µM (inactive); in the assay on EKVX it was 10.3 µM (inactive); in the assay on HCC 2998 it was 15.1 µM (inactive); in the assay on HCT-116 it was 13.7 µM (inactive); with HOP-62, 29.5 µM (inactive). Besides, the GI50 in the assay with HT-29 is 11.2 µM (inactive); in the assay with Hs-578T, 28.5 µM (inactive); in the assay with IGROV-1, 14.8 µM (inactive); in the assay on LOX IMVI it was 17.4 µM (inactive); in the assay with M14 it was 17.2 µM (inactive); with MCF7, 10.8 µM (inactive). In addition, the GI50 is 16 µM (inactive) with MDA-N; 23.3 µM (inactive) in the assay with NCI-H226; 6.87 µM (inactive) in the assay on NCI-H522; 18.4 µM (inactive) in the assay with OVCAR-4; 15.7 µM (inactive) with OVCAR-5; 21.8 µM (inactive) with OVCAR-8. Besides, the GI50 with RPMI-8226 was 16.2 µM (inactive); in the assay with SK-OV-3, 49.2 µM (inactive).
For `OC(CNc1ccccn1)c1ccccc1` (stereo not given) [PHENYRAMIDOL HYDROCHLORIDE], the GI50 in the assay with 786-0, in the assay with CAKI-1, in the assay on EKVX, with HCC 2998, with HCT-116 and with HOP-62 was > 100 µM (inactive) throughout. In addition, the GI50 in the assay on HT-29, in the assay with Hs-578T, in the assay with IGROV-1, in the assay with LOX IMVI, in the assay with M14 and in the assay on MCF7 was > 100 µM (inactive) throughout. The GI50 with MDA-N, with NCI-H226, in the assay with NCI-H522, with OVCAR-4, in the assay on OVCAR-5 and in the assay on OVCAR-8 was > 100 µM (inactive) each time. Further, the GI50 is 90.2 µM (inactive) in the assay on RPMI-8226 and > 100 µM (inactive) with SK-OV-3.
With `NCCCCNCCCNC(=O)CNC(=O)CC(O)C(N)CCCC(NC(=O)C(CN)NC(=O)C(O)CNC(=O)CC(N)c1ccc(O)cc1)C(=O)O` (stereo not given), the GI50 in the assay with 786-0, in the assay on CAKI-1, with EKVX, in the assay with HCC 2998, in the assay on HCT-116 and in the assay with HOP-62 was > 10 µM (inactive) each time. For the same compound, the GI50 in the assay on HT-29, with Hs-578T, in the assay on IGROV-1, with LOX IMVI, with M14 and with MCF7 was > 10 µM (inactive) in each case. In addition, the GI50 in the assay with MDA-N, in the assay with NCI-H226, in the assay with NCI-H522, with OVCAR-4, in the assay on OVCAR-5 and in the assay on OVCAR-8 was > 10 µM (inactive) each time. In addition, the GI50 in the assay on RPMI-8226 and in the assay with SK-OV-3 was > 10 µM (inactive) each time.
With `CN(C)CCS/C(=N\c1ccccc1)N1C=COC=C1`, the GI50 is 20.1 µM (inactive) with 786-0; > 33.3 µM (inactive) in the assay on CAKI-1; 86.1 µM (inactive) with EKVX; 24.7 µM (inactive) in the assay on HCC 2998; 23.6 µM (inactive) in the assay with HCT-116; > 100 µM (inactive) in the assay with HOP-62. Besides, the GI50 in the assay on HT-29 is 43.7 µM (inactive); in the assay with Hs-578T it was 89.1 µM (inactive); in the assay with IGROV-1, 18 µM (inactive); with LOX IMVI it was 16 µM (inactive); in the assay with M14, 18 µM (inactive); with MCF7 it was 17.9 µM (inactive). For the same compound, the GI50 with MDA-N was 24 µM (inactive); in the assay on NCI-H226, > 46.2 µM (inactive); with NCI-H522, 17.4 µM (inactive); in the assay on OVCAR-4, > 44.6 µM (inactive); in the assay with OVCAR-5, > 66.5 µM (inactive); in the assay with OVCAR-8 it was 37.5 µM (inactive). Besides, the GI50 in the assay with RPMI-8226 was 61.7 µM (inactive); in the assay on SK-OV-3 it was > 100 µM (inactive).
In the case of `CC(C)(C)N1CSC(=S)N(Cc2ccco2)C1`, the GI50 is 1.63 µM (inactive) in the assay on 786-0; 2.83 µM (inactive) with CAKI-1; 14.4 µM (inactive) in the assay with EKVX; 4.02 µM (inactive) with HCC 2998; 3.81 µM (inactive) in the assay with HCT-116; 4.8 µM (inactive) in the assay with HOP-62. Further, the GI50 in the assay with HT-29 was 3.27 µM (inactive); in the assay with Hs-578T, 4.78 µM (inactive); with IGROV-1 it was 2.55 µM (inactive); with LOX IMVI, 3.05 µM (inactive); in the assay with M14, 2.46 µM (inactive); with MCF7 it was 0.52 µM (active). Moreover, the GI50 is 2.85 µM (inactive) with MDA-N; 20.3 µM (inactive) with NCI-H226; 3.27 µM (inactive) with NCI-H522; 12.1 µM (inactive) with OVCAR-4; 3.1 µM (inactive) with OVCAR-5; 2.12 µM (inactive) in the assay with OVCAR-8. Besides, the GI50 in the assay with RPMI-8226 was 0.177 µM (active); in the assay with SK-OV-3 it was 5.75 µM (inactive).
As to `CCOC(=O)/C(C(=O)Nc1ccc(F)cc1)=C(/N)N1CCOCC1`, the GI50 with 786-0, in the assay with CAKI-1, in the assay with EKVX, in the assay on HCC 2998, in the assay on HCT-116 and in the assay on HOP-62 was > 100 µM (inactive) each time. Further, the GI50 with HT-29, in the assay with Hs-578T, with IGROV-1, in the assay on LOX IMVI, in the assay on M14 and in the assay on MCF7 was > 100 µM (inactive) in each case. For the same compound, the GI50 in the assay with MDA-N, in the assay with NCI-H226, with NCI-H522, in the assay with OVCAR-4, in the assay with OVCAR-5 and with OVCAR-8 was > 100 µM (inactive) throughout. Moreover, the GI50 in the assay on RPMI-8226 and in the assay on SK-OV-3 was > 100 µM (inactive) each time.
Consider `COc1cc2[nH]c(=O)c3cc(-c4ccccc4)cc4c(Cl)nc(c1OC)c2c43`, for which the GI50 was 6.59 µM (inactive) with 786-0; 24.4 µM (inactive) in the assay with CAKI-1; 14 µM (inactive) with EKVX; 23.6 µM (inactive) in the assay with HCC 2998; 3.1 µM (inactive) with HCT-116; 32.6 µM (inactive) with HOP-62. The GI50 was 3.92 µM (inactive) in the assay with HT-29; > 100 µM (inactive) in the assay on Hs-578T; 19.1 µM (inactive) in the assay on IGROV-1; 6.78 µM (inactive) in the assay with LOX IMVI; 19.4 µM (inactive) with M14; 2.36 µM (inactive) with MCF7. In addition, the GI50 in the assay on MDA-N is 3.86 µM (inactive); with NCI-H226, > 70.1 µM (inactive); in the assay on NCI-H522, 3.77 µM (inactive); in the assay with OVCAR-4 it was 9.27 µM (inactive); in the assay with OVCAR-5 it was 49.4 µM (inactive); with OVCAR-8, 5.14 µM (inactive). Further, the figures for the GI50 with RPMI-8226 and with SK-OV-3 were 13.2 µM (inactive) and > 47.8 µM (inactive), respectively.
On to `NC1=CN(CCCO)C2=N/C(=C\c3ccccc3)C(=O)N12`, for which the GI50 in the assay on 786-0 is > 100 µM (inactive); with CAKI-1 it was > 100 µM (inactive); in the assay with EKVX, 69.5 µM (inactive); in the assay with HCC 2998, > 100 µM (inactive); with HCT-116, > 100 µM (inactive); in the assay on HOP-62, > 100 µM (inactive). In addition, the GI50 is > 100 µM (inactive) in the assay on HT-29; 86.3 µM (inactive) in the assay with Hs-578T; > 100 µM (inactive) with IGROV-1; > 100 µM (inactive) in the assay on LOX IMVI; > 100 µM (inactive) in the assay with M14; > 100 µM (inactive) with MCF7. Further, the GI50 with MDA-N is > 100 µM (inactive); in the assay with NCI-H226, > 100 µM (inactive); with NCI-H522 it was 80.4 µM (inactive); in the assay on OVCAR-4, > 100 µM (inactive); in the assay on OVCAR-5, > 100 µM (inactive); in the assay on OVCAR-8, > 100 µM (inactive). Besides, the values for the GI50 in the assay with RPMI-8226 and with SK-OV-3 were 83.4 µM (inactive) and > 100 µM (inactive), respectively.
As to `CC(=O)OCc1ccc2oc(=O)c(C(=O)Oc3cccc(Cl)c3)cc2c1`, the GI50 is 36.1 µM (inactive) in the assay on 786-0; 42.9 µM (inactive) in the assay on CAKI-1; > 100 µM (inactive) in the assay with EKVX; 19.4 µM (inactive) in the assay on HCC 2998; 21.2 µM (inactive) in the assay with HCT-116; 99.1 µM (inactive) in the assay on HOP-62. The GI50 with HT-29 was 27.5 µM (inactive); in the assay with Hs-578T, > 100 µM (inactive); in the assay with IGROV-1 it was 63.5 µM (inactive); in the assay on LOX IMVI it was > 100 µM (inactive); in the assay with M14, 34.6 µM (inactive); with MCF7, 26.2 µM (inactive). The GI50 in the assay on MDA-N, in the assay on NCI-H226, in the assay on NCI-H522, in the assay on OVCAR-4, in the assay on OVCAR-5 and in the assay with OVCAR-8 was > 100 µM (inactive) throughout. In addition, the GI50 in the assay on RPMI-8226 and in the assay on SK-OV-3 was > 100 µM (inactive) throughout.
Consider `NC(Cc1ccc(N(CCCl)CCCl)cc1)C(=O)NC(CCC(=O)O)C(=O)O` (stereo not given), for which the GI50 in the assay on 786-0, in the assay with CAKI-1, in the assay on EKVX, in the assay on HCC 2998, with HCT-116 and with HOP-62 was > 100 µM (inactive) in each case. Further, the GI50 in the assay on HT-29, with Hs-578T, in the assay on IGROV-1, in the assay with LOX IMVI, in the assay on M14 and in the assay with MCF7 was > 100 µM (inactive) in each case. Besides, the GI50 in the assay on MDA-N, in the assay with NCI-H226, in the assay on NCI-H522, in the assay on OVCAR-4, in the assay on OVCAR-5 and with OVCAR-8 was > 100 µM (inactive) in each case. Also, the GI50 in the assay on RPMI-8226 and in the assay on SK-OV-3 was > 100 µM (inactive) each time.

Source of the values: ChEMBL document CHEMBL1201862, “PubChem BioAssay data set” (2004).
